Like-named read-outs stand apart in the source and are kept apart here.
Assays:
Test in all cases: NCI anticancer screen, SRB assay, 48 h
Format in all cases: cell-based, human
[1] = system: HOP-92 (non-small cell lung); conditions: Homo sapiens
How it was run: (§1)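 Compounds were tested across fifty three human cancer cell lines from nine tumour types. Each line got a dose-response curve of at least five concentrations at 10-fold dilutions, with continuous drug exposure and sulforhodamine B protein staining to estimate viability or growth.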

ACHN (renal) = conditions: Homo sapiens
How it was run: as §1

OVCAR-8 (ovarian) = conditions: Homo sapiens
How it was run: as §1

PC-3 (prostate) = conditions: Homo sapiens
How it was run: as §1

[2] = system: NCI-H460 (non-small cell lung); conditions: Homo sapiens
How it was run: as §1

OVCAR-5 (ovarian) = conditions: Homo sapiens
How it was run: as §1

MDA-MB-231/ATCC (breast) = conditions: Homo sapiens
How it was run: as §1

[3] = system: K-562 (leukemia cell line); conditions: Homo sapiens
How it was run: as §1

M14 (melanoma) = conditions: Homo sapiens
How it was run: as §1

SF-539 (CNS) = conditions: Homo sapiens
How it was run: as §1

SF-295 (CNS) = conditions: Homo sapiens
How it was run: as §1

OVCAR-3 (ovarian) = conditions: Homo sapiens
How it was run: as §1

786-0 (renal) = conditions: Homo sapiens
How it was run: as §1

SNB-75 (CNS) = conditions: Homo sapiens
How it was run: as §1

UO-31 (renal) = conditions: Homo sapiens
How it was run: as §1

MALME-3M (melanoma) = conditions: Homo sapiens
How it was run: as §1

[4] = system: EKVX (non-small cell lung); conditions: Homo sapiens
How it was run: as §1

SK-MEL-2 (melanoma) = conditions: Homo sapiens
How it was run: as §1

UACC-62 (melanoma) = conditions: Homo sapiens
How it was run: as §1

[5] = system: NCI-H23 (non-small cell lung); conditions: Homo sapiens
How it was run: as §1

SF-268 (CNS) = conditions: Homo sapiens
How it was run: as §1

HT29 (colon) = conditions: Homo sapiens
How it was run: as §1

[6] = system: NCI-H522 (non-small cell lung); conditions: Homo sapiens
How it was run: as §1

LOX IMVI (melanoma) = conditions: Homo sapiens
How it was run: as §1

A498 (renal) = conditions: Homo sapiens
How it was run: as §1

[7] = system: HOP-62 (non-small cell lung); conditions: Homo sapiens
How it was run: as §1

RXF 393 (renal) = conditions: Homo sapiens
How it was run: as §1

BT-549 (breast) = conditions: Homo sapiens
How it was run: as §1

MCF7 (breast) = conditions: Homo sapiens
How it was run: as §1

COLO 205 (colon) = conditions: Homo sapiens, COLO 205
How it was run: as §1

SW-620 (colon) = conditions: Homo sapiens
How it was run: as §1

[8] = system: NCI-H322M (non-small cell lung); conditions: Homo sapiens
How it was run: as §1

HS 578T (breast) = conditions: Homo sapiens
How it was run: as §1

SK-OV-3 (ovarian) = conditions: Homo sapiens
How it was run: as §1

SK-MEL-28 (melanoma) = conditions: Homo sapiens
How it was run: as §1

KM12 (colon) = conditions: Homo sapiens
How it was run: as §1

[9] = 48 h exposure, SRB, read-out: GI50
[10] = read-out: pGI50 (-log of molar concentration causing 50% inhibition of net cell growth) (converted)
[11] = PC-3, read-out: pGI50 (-log of molar concentration causing 50% inhibition of net cell growth) (converted)
[12] = one prostate cancer cell line (PC-3), exposure at least 48 hrs, read-out: GI50
[13] = K562, 48 h exposure, SRB, read-out: GI50
[14] = K562, read-out: pGI50 (-log of molar concentration causing 50% inhibition of net cell growth) (converted)
[15] = Malme-3M, read-out: pGI50 (-log of molar concentration causing 50% inhibition of net cell growth) (converted)
[16] = MALME-3M, 48 h exposure, SRB, read-out: GI50
[17] = HT-29, 48 h exposure, SRB, read-out: GI50
[18] = HT-29, read-out: pGI50 (-log of molar concentration causing 50% inhibition of net cell growth) (converted)
[19] = RXF 393, 48 h exposure, SRB, read-out: GI50
[20] = RXF-393, read-out: pGI50 (-log of molar concentration causing 50% inhibition of net cell growth) (converted)
[21] = COLO205, read-out: pGI50 (-log of molar concentration causing 50% inhibition of net cell growth) (converted)

COc1cc(/C=C/C(=O)c2cccc(-n3cc(-c4ccc(Cl)cc4)[nH]c3=O)c2)ccc1O [3f, 4-(4-chlorophenyl)-1-3-[(E)-3-(4-hydroxy-3-methoxyphenyl)-2-propenoyl]phenyl-2,3-dihydro-1H-2-imidazolone]
GI50 [1, 9]: 1.26 µM | GI50 [1, 10]: 1.26 µM | GI50 (ACHN (renal); [9]): 2.19 µM | GI50 (ACHN (renal); [10]): 2.19 µM | GI50 (OVCAR-8 (ovarian); [9]): 4.18 µM | GI50 (OVCAR-8 (ovarian); [10]): 4.17 µM | GI50 (PC-3 (prostate); [11]): 1.95 µM | GI50 (PC-3 (prostate); [12]): 1.95 µM | GI50 [2, 9]: 3.9 µM | GI50 [2, 10]: 3.89 µM | GI50 (OVCAR-5 (ovarian); [9]): 2 µM | GI50 (OVCAR-5 (ovarian); [10]): 2 µM | GI50 (MDA-MB-231/ATCC (breast); [9]): 3.87 µM | GI50 (MDA-MB-231/ATCC (breast); [10]): 3.89 µM | GI50 [3, 13]: 1.42 µM | GI50 [3, 14]: 1.41 µM | GI50 (M14 (melanoma); [9]): 2.86 µM | GI50 (M14 (melanoma); [10]): 2.88 µM | GI50 (SF-539 (CNS); [9]): 1.78 µM | GI50 (SF-539 (CNS); [10]): 1.78 µM | GI50 (SF-295 (CNS); [9]): 10.5 µM | GI50 (SF-295 (CNS); [10]): 10.5 µM | GI50 (OVCAR-3 (ovarian); [9]): 1.56 µM | GI50 (OVCAR-3 (ovarian); [10]): 1.55 µM | GI50 (786-0 (renal); [9]): 2.07 µM | GI50 (786-0 (renal); [10]): 2.09 µM | GI50 (SNB-75 (CNS); [9]): 2.75 µM | GI50 (SNB-75 (CNS); [10]): 2.75 µM | GI50 (UO-31 (renal); [9]): 1.67 µM | GI50 (UO-31 (renal); [10]): 1.66 µM | GI50 (MALME-3M (melanoma); [15]): 3.09 µM | GI50 (MALME-3M (melanoma); [16]): 3.06 µM | GI50 [4, 9]: 9.61 µM | GI50 [4, 10]: 9.55 µM | GI50 (SK-MEL-2 (melanoma); [9]): 3.66 µM | GI50 (SK-MEL-2 (melanoma); [10]): 3.63 µM | GI50 (UACC-62 (melanoma); [9]): 2.74 µM | GI50 (UACC-62 (melanoma); [10]): 2.75 µM | GI50 [5, 9]: 3.18 µM | GI50 [5, 10]: 3.16 µM | GI50 (SF-268 (CNS); [9]): 2.5 µM | GI50 (SF-268 (CNS); [10]): 2.51 µM | GI50 (HT29 (colon); [17]): 2.97 µM | GI50 (HT29 (colon); [18]): 2.95 µM | GI50 [6, 9]: 2.36 µM | GI50 [6, 10]: 2.34 µM | GI50 (LOX IMVI (melanoma); [9]): 1.63 µM | GI50 (LOX IMVI (melanoma); [10]): 1.62 µM | GI50 (A498 (renal); [9]): 2.82 µM | GI50 (A498 (renal); [10]): 2.82 µM | GI50 [7, 9]: 2.84 µM | GI50 [7, 10]: 2.82 µM | GI50 (RXF 393 (renal); [19]): 6.4 µM | GI50 (RXF 393 (renal); [20]): 6.46 µM | GI50 (BT-549 (breast); [9]): 2.52 µM | GI50 (BT-549 (breast); [10]): 2.51 µM | GI50 (MCF7 (breast); [9]): 2.3 µM | GI50 (MCF7 (breast); [10]): 2.29 µM | GI50 (COLO 205 (colon); [21]): 3.39 µM | GI50 (COLO 205 (colon); [9]): 3.4 µM | GI50 (SW-620 (colon); [9]): 2 µM | GI50 (SW-620 (colon); [10]): 2 µM | GI50 [8, 9]: 4.58 µM | GI50 [8, 10]: 4.57 µM | GI50 (HS 578T (breast); [9]): 4.67 µM | GI50 (HS 578T (breast); [10]): 4.68 µM | GI50 (SK-OV-3 (ovarian); [9]): 3.19 µM | GI50 (SK-OV-3 (ovarian); [10]): 3.16 µM | GI50 (SK-MEL-28 (melanoma); [9]): 2.06 µM | GI50 (SK-MEL-28 (melanoma); [10]): 2.04 µM | GI50 (KM12 (colon); [9]): 1.48 µM | GI50 (KM12 (colon); [10]): 1.48 µM

O=C(/C=C/c1cccc(O)c1)c1cccc(-n2cc(-c3ccccc3)[nH]c2=O)c1 [4a, 1-3-[(E)-3-(3-hydroxyphenyl)-2-propenoyl]phenyl-4-phenyl-2,3-dihydro-1H-2-imidazolone]
GI50 [1, 9]: 5.04 µM | GI50 [1, 10]: 5.01 µM | GI50 (ACHN (renal); [9]): 2.76 µM | GI50 (ACHN (renal); [10]): 2.75 µM | GI50 (OVCAR-8 (ovarian); [9]): 2.8 µM | GI50 (OVCAR-8 (ovarian); [10]): 2.82 µM | GI50 (PC-3 (prostate); [11]): 2.82 µM | GI50 (PC-3 (prostate); [12]): 2.82 µM | GI50 [2, 9]: 2.49 µM | GI50 [2, 10]: 2.51 µM | GI50 (OVCAR-5 (ovarian); [9]): 5.44 µM | GI50 (OVCAR-5 (ovarian); [10]): 5.5 µM | GI50 (MDA-MB-231/ATCC (breast); [9]): 3.86 µM | GI50 (MDA-MB-231/ATCC (breast); [10]): 3.89 µM | GI50 [3, 13]: 3.35 µM | GI50 [3, 14]: 3.39 µM | GI50 (M14 (melanoma); [9]): 4.53 µM | GI50 (M14 (melanoma); [10]): 4.57 µM | GI50 (SF-539 (CNS); [9]): 1.98 µM | GI50 (SF-539 (CNS); [10]): 2 µM | GI50 (SF-295 (CNS); [9]): 18.2 µM | GI50 (SF-295 (CNS); [10]): 18.2 µM | GI50 (OVCAR-3 (ovarian); [9]): 3.08 µM | GI50 (OVCAR-3 (ovarian); [10]): 3.09 µM | GI50 (786-0 (renal); [9]): 2.98 µM | GI50 (786-0 (renal); [10]): 2.95 µM | GI50 (SNB-75 (CNS); [9]): 12.1 µM | GI50 (SNB-75 (CNS); [10]): 12 µM | GI50 (UO-31 (renal); [9]): 2.16 µM | GI50 (UO-31 (renal); [10]): 2.14 µM | GI50 (MALME-3M (melanoma); [15]): 6.17 µM | GI50 (MALME-3M (melanoma); [16]): 6.21 µM | GI50 [4, 9]: 15.6 µM | GI50 [4, 10]: 15.5 µM | GI50 (SK-MEL-2 (melanoma); [9]): 8.26 µM | GI50 (SK-MEL-2 (melanoma); [10]): 8.32 µM | GI50 (UACC-62 (melanoma); [9]): 3.65 µM | GI50 (UACC-62 (melanoma); [10]): 3.63 µM | GI50 [5, 9]: 3.35 µM | GI50 [5, 10]: 3.39 µM | GI50 (SF-268 (CNS); [9]): 4.53 µM | GI50 (SF-268 (CNS); [10]): 4.57 µM | GI50 (HT29 (colon); [17]): 3.33 µM | GI50 (HT29 (colon); [18]): 3.31 µM | GI50 (LOX IMVI (melanoma); [9]): 1.85 µM | GI50 (LOX IMVI (melanoma); [10]): 1.86 µM | GI50 (A498 (renal); [9]): 14.3 µM | GI50 (A498 (renal); [10]): 14.5 µM | GI50 [7, 9]: 6.93 µM | GI50 [7, 10]: 6.92 µM | GI50 (RXF 393 (renal); [19]): 1.89 µM | GI50 (RXF 393 (renal); [20]): 1.91 µM | GI50 (BT-549 (breast); [9]): 9.32 µM | GI50 (BT-549 (breast); [10]): 9.33 µM | GI50 (MCF7 (breast); [9]): 2.47 µM | GI50 (MCF7 (breast); [10]): 2.45 µM | GI50 (COLO 205 (colon); [21]): 2 µM | GI50 (COLO 205 (colon); [9]): 2.01 µM | GI50 (SW-620 (colon); [9]): 2.41 µM | GI50 (SW-620 (colon); [10]): 2.4 µM | GI50 [8, 9]: 10.6 µM | GI50 [8, 10]: 10.7 µM | GI50 (HS 578T (breast); [9]): 6.14 µM | GI50 (HS 578T (breast); [10]): 6.17 µM | GI50 (SK-OV-3 (ovarian); [9]): 11.1 µM | GI50 (SK-OV-3 (ovarian); [10]): 11.2 µM | GI50 (SK-MEL-28 (melanoma); [9]): 5.63 µM | GI50 (SK-MEL-28 (melanoma); [10]): 5.62 µM | GI50 (KM12 (colon); [9]): 1.83 µM | GI50 (KM12 (colon); [10]): 1.82 µM

— patent US8889874B2, “Imidazolone-chalcone derivatives as potential anticancer agent and process for the preparation thereof” (Council of Scientific and Industrial Research, priority 2010, dated 2014)
